In brackets after ≈: the same amount, converted by molar mass. Read-outs that look alike come from different tables or passages of the source.
Assays:
[1] = target: T1, ferrous heme-hHO-1 (Homo sapiens, UniProt P09601); details: cited from earlier work
T1 sequence (P09601 1-265 limits assumed): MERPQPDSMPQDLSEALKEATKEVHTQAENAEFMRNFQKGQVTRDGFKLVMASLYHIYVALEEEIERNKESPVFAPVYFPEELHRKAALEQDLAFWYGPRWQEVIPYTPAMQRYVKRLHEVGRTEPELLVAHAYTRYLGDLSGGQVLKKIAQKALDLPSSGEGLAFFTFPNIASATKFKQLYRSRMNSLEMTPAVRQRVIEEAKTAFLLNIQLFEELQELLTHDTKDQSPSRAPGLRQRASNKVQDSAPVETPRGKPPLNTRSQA

[2] = system: verdoheme-HO-1 complex; details: in the presence of reductant; cited from earlier work
[3] = target: T2, heme-hHO-1 (Homo sapiens, UniProt P09601); type: binding; details: ferric heme-hHO-1
T2 sequence (P09601 1-265 limits assumed): T1 sequence (P09601 1-265 limits assumed)

[4] = target: T1, ferrous heme-hHO-1; test: biochemical; type: binding
[5] = target: T3, hHO-1 (Homo sapiens, UniProt P09601); test: biochemical
T3 sequence (P09601 1-265 limits assumed): T1 sequence (P09601 1-265 limits assumed)

[6] = target: T4, hHO-2 (Homo sapiens, UniProt P30519); test: biochemical
T4 sequence (P30519 2-295 limits assumed): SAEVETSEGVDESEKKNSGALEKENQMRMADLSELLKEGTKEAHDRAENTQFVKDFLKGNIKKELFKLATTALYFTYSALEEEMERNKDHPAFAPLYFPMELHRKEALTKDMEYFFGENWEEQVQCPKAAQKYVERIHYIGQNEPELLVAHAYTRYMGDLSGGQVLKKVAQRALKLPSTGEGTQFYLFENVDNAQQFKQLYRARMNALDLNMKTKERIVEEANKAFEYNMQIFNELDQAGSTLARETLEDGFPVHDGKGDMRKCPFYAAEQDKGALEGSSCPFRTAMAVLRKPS

[7] = target: T2, heme-hHO-1; test: biochemical
[8] = target: T5, ferric verdoheme-hHO-1 (Homo sapiens, UniProt P09601); test: biochemical; type: binding
T5 sequence (P09601 1-265 limits assumed): T1 sequence (P09601 1-265 limits assumed)

[9] = Solubility in aqueous solutions; type: physicochemical
[10] = target: HO; details: cited from earlier work
[11] = target: HO; details: cited from earlier work; remark: listed apart in the source
[12] = target: CaHmx1 (Candida albicans, UniProt Q5AB97); type: binding; details: read-out: estimate of the KD; ferric CaHmx1; no full saturation up to 7 mM

For `O=O` [O2], the Kd [1] is given as 0.04 µM, the association rate constant [1] is given as 6.9e+06 M⁻¹ s⁻¹ and the dissociation rate [1] is given as 0.25 s⁻¹. The “estimated rate constant of reaction with O2” value [2] was 250 M⁻¹ s⁻¹.

In the case of `[C-]#[N+]CCCC` [n-butyl isocyanide], the “fold higher affinity than isopropyl isocyanide” value [3] is reported as 9 fold, the Kd [4] is reported as 0.12 µM and the koff ([4]; read-out: dissociation rate (koff)) is reported as 0.52 s⁻¹. The IC50 [5] was 0.25 ± 0.01 µM, the IC50 [6] was 0.34 ± 0.02 µM and the IC50 [7] was about 45 µM. The Kd [8] was 17 ± 3 µM, the “fold higher affinity than ferric heme-hHO-1” value ([8]; ferric verdoheme-hHO-1 versus ferric heme-hHO-1) was 2 fold and the solubility [9] was 6 mM (≈ 499 µg/mL).

In the case of `[C-]#[O+]` [CO, carbon monoxide], the Kd [1] is listed as 0.01 µM, the association rate constant [1] is listed as 900000 M⁻¹ s⁻¹ and the dissociation rate [1] is listed as 0.009 s⁻¹.

In the case of iron protoporphyrin IX [heme], the Km ([5]; read-out: Km for heme, global fit to uncompetitive inhibition) is listed as 0.005 ± 0.001 mM and the Kd [10] is listed as 0.8 ± 0.2 µM.

In the case of `C=Cc1c2[n-]c(c1C)/C=c1\[n-]/c(c(C)c1C=C)=C\c1[n-]c(c(CCC(=O)O)c1C)C=c1[n-]/c(c(C)c1CCC(=O)O)=C\2.[Sn+4]` [Sn-heme], the Ki [11] is given as 0.011 µM.

For `[C-]#[N+]C(C)C` [isopropyl isocyanide], the Kd [12] was 3800 µM, the “association rate constant (kon)” value ([4]; ferrous heme-hHO-1, 20 °C, anaerobic) was 1.3e+06 M⁻¹ s⁻¹ and the IC50 [5] was 0.72 ± 0.08 µM. For the same molecule, the IC50 [6] was 1.17 ± 0.06 µM and the Kd ([8]; ferric verdoheme-hHO-1 generated with one equivalent H2O2) was 440 ± 75 µM.

Source: publication PMC2857669 (Biochemistry, 2009)
